Columns and labels:
Assay in all cases: Two-electrode voltage-clamp recordings, Xenopus oocytes
Type in all cases: cell-based
GluN1/GluN2A E790M = GluN1/GluN2A E790M (Rattus norvegicus, UniProt P35439+Q00959, E790M); settings: 100 μM glutamate + 3 μM glycine
GluN1/GluN2A M788I = GluN1/GluN2A M788I (Rattus norvegicus, UniProt P35439+Q00959, M788I); settings: 100 μM glutamate + 3 μM glycine
GluN1/GluN2A V783A = GluN1/GluN2A V783A (Rattus norvegicus, UniProt P35439+Q00959, V783A); settings: 100 μM glutamate + 3 μM glycine
GluN1/GluN2A V783W = GluN1/GluN2A V783W (Rattus norvegicus, UniProt P35439+Q00959, V783W); settings: 100 μM glutamate + 3 μM glycine
GluN1/GluN2A P527A = GluN1/GluN2A P527A (Rattus norvegicus, UniProt P35439+Q00959, P527A); settings: 100 μM glutamate + 3 μM glycine
GluN1/GluN2A L779A = GluN1/GluN2A L779A (Rattus norvegicus, UniProt P35439+Q00959, L779A); settings: 100 μM glutamate + 3 μM glycine
GluN1/GluN2A G786A = GluN1/GluN2A G786A (Rattus norvegicus, UniProt P35439+Q00959, G786A); settings: 100 μM glutamate + 3 μM glycine
GluN1/GluN2A M788A = GluN1/GluN2A M788A (Rattus norvegicus, UniProt P35439+Q00959, M788A); settings: 100 μM glutamate + 3 μM glycine
GluN1/2A-(2D M1M2M3) = GluN1/2A-(2D M1M2M3) (Rattus norvegicus, UniProt P35439+Q00959, A555P/A572T/A593R/A604S/F553Y/F579L/F658Y/G610A/H595G/I567T/I571V/K590T/K623R/L565C/N587S/P597S/Q620E/S556A/S569V/S598T/S632L/V575I); settings: 100 μM glutamate plus 30 μM glycine; vs GluN1/GluN2A
GluN1/2A-ΔATD = GluN1/2A-ΔATD (Rattus norvegicus, UniProt P35439+Q00959); settings: 100 μM glutamate plus 30 μM glycine; vs GluN1/GluN2A
GluN1/2A-(2D D1) = GluN1/2A-(2D D1) (Rattus norvegicus, UniProt P35439+Q00959, A414R/D421P/DELINS438-452SQLNRTHSPPPDAPRPE/E427G/E790M/G786D/I408V/I422A/K454R/K466R/K472G/L425I/M788I/N404Q/N432D/N490D/N491G/P770R/Q766H/Q774P/R469H/S407T/S468A/S538A/T426S/T433S/T474S/T793R/T797S/V409A/V430I/V471I/V489I/V501F/V506D/V509I/V521I/V783L); settings: 100 μM glutamate plus 30 μM glycine

O=C(NNC(=O)c1ccc(CNS(=O)(=O)c2ccc(F)c(Cl)c2)cc1)c1ccccc1 [TCN-201, 3-chloro-4-fluoro-N-[(4-[(2-(phenylcarbonyl)hydrazino)carbonyl]phenyl)methyl]-benzenesulfonamide]
TCN-201 activity Max. % inhibition (GluN1/GluN2A E790M): 90 ± 3%
TCN-201 activity nH (GluN1/GluN2A E790M): 1.4
TCN-201 activity Max. % inhibition (GluN1/GluN2A M788I): 79 ± 3%
TCN-201 activity nH (GluN1/GluN2A M788I): 1.3
TCN-201 activity Max. % inhibition (GluN1/GluN2A V783A): 91 ± 2%
TCN-201 activity nH (GluN1/GluN2A V783A): 1.1
TCN-201 activity Max. % inhibition (GluN1/GluN2A V783W): 95 ± 2%
TCN-201 activity nH (GluN1/GluN2A V783W): 1.0
TCN-201 activity Max. % inhibition (GluN1/GluN2A P527A): 91 ± 3%
TCN-201 activity nH (GluN1/GluN2A P527A): 1.4
TCN-201 activity Max. % inhibition (GluN1/GluN2A L779A): 88 ± 5%
TCN-201 activity nH (GluN1/GluN2A L779A): 1.3
TCN-201 activity Max. % inhibition (GluN1/GluN2A G786A): 87 ± 3%
TCN-201 activity nH (GluN1/GluN2A G786A): 1.8
TCN-201 activity Max. % inhibition (GluN1/GluN2A M788A): 90 ± 3%
TCN-201 activity nH (GluN1/GluN2A M788A): 1.4
Inhibition by 3 μM TCN-201 (GluN1/2A-(2D M1M2M3)): did not reduce inhibition
Inhibition by 3 μM TCN-201 (GluN1/2A-ΔATD): did not reduce inhibition
Inhibition by 3 μM TCN-201 (GluN1/2A-(2D D1)): eliminated TCN-201 inhibition

From paper PMC3355950 (The Journal of Neuroscience, 2012)
